The test has as its system primary rat mixed cortical cells. Description: In vitro myelination assay (MBP positive myelin strands, fold myelin pixels above background). The format is cell-based. As to conditions: Rattus norvegicus; for fold induction at 1 µM: 1.0 μM compound; for fold induction at 10 µM: 10.0 μM compound. The procedure, abridged:
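Compounds at 1.0 and 10.0 μM were incubated 14 days with dissociated P1 rat cortical cells, which were then fixed and immunostained for MBP. Myelination was scored as fold MBP myelin pixels per well over the no-compound baseline.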

Where [1] appears, read: relative to baseline of no added compound, read-out: Fold myelin pixels above background, 1.0 μM.
Setting [2] is: relative to baseline of no added compound, read-out: Fold myelin pixels above background, 10.0 μM.
The mark [3] stands for this setting: relative to baseline of no added compound, read-out: Fold myelin pixels above background.
[4] abbreviates: read-out: Fold myelin pixels above background relative to baseline of no added compound.

Structures are written as SMILES. Where two headings read alike, the source gives them in different places.

In the case of `Fc1cc(F)cc(-n2cnc(Nc3cc(C(F)F)cc(N4CCN(C5COC5)CC4)c3)n2)c1` [Compound 82, N-[3-(difluoromethyl)-5-[4-(oxetan-3-yl)piperazin-1-yl]phenyl]-1-(3,5-difluorophenyl)-1,2,4-triazol-3-amine], under setting [1], the fold induction at 1 µM was 1000 to 10000. Also, the fold induction at 10 µM under setting [2] lay in the range of 100 to 1000.

Regarding `CCc1cc(Nc2ncn(-c3cc(F)ccc3F)n2)cc(N2CCN(C3COC3)CC2)c1` [Compound 417, 1-(2,5-difluorophenyl)-N-[3-ethyl-5-[4-(oxetan-3-yl)piperazin-1-yl]phenyl]-1,2,4-triazol-3-amine], under setting [3], the fold induction at 1 µM fell in the range of 100 to 1000 and the fold induction at 10 µM lay within 1000 to 10000.

Regarding `Cc1cc(Nc2ncn(-c3cc(F)cc(Cl)c3)n2)cc(N2CCN(C3COC3)CC2)c1` [Compound 32, 1-(3-chloro-5-fluoro-phenyl)-N-[3-methyl-5-[4-(oxetan-3-yl)piperazin-1-yl]phenyl]-1,2,4-triazol-3-amine], the fold induction at 1 µM under setting [1] fell in the range of 1000 to 10000. Further, the fold induction at 10 µM under setting [2] is 100 to 1000.

Take `[2H]C([2H])([2H])C([2H])(N1CCN(c2cc(C)cc(Nc3ncn(-c4ccccc4)n3)c2)CC1)C([2H])([2H])[2H]` [Compound 1086, N-[3-methyl-5-[4-[1,2,2,2-tetradeuterio-1-(trideuteriomethyl)ethyl]piperazin-1-yl]phenyl]-1-phenyl-1,2,4-triazol-3-amine]: under setting [4], the fold induction at 1 µM is 10 to 100 and the fold induction at 10 µM was at most 1.

Regarding `Cc1cc(Nc2ncn(-c3cc(F)cc(F)c3)n2)cc(N2CCN(C3CCCN(C)C3)CC2)c1` (stereo not drawn) [Compound 892, 1-(3,5-difluorophenyl)-N-[3-methyl-5-[4-(1-methyl-3-piperidyl)piperazin-1-yl]phenyl]-1,2,4-triazol-3-amine], under setting [4], the fold induction at 1 µM is 1 to 10 and the fold induction at 10 µM was at most 1.

As for `Cc1cc(Nc2ncn(-c3cc(F)cc(F)c3)n2)cc(N2CCC3(CCCO3)CC2)c1` [Compound 851, 1-(3,5-difluorophenyl)-N-[3-methyl-5-(1-oxa-8-azaspiro[4.5]decan-8-yl)phenyl]-1,2,4-triazol-3-amine], under setting [4], the fold induction at 1 µM is 1 to 10 and the fold induction at 10 µM was in the range of 10 to 100.

Consider `Cc1cc(Nc2ncn(-c3ccnc(F)c3)n2)cc(N2CCN(C3COC3)CC2)c1` [Compound 40, 1-(2-fluoro-4-pyridyl)-N-[3-methyl-5-[4-(oxetan-3-yl)piperazin-1-yl]phenyl]-1,2,4-triazol-3-amine], for which the fold induction at 1 µM under setting [1] was in the range of 1000 to 10000. The fold induction at 10 µM under setting [2] was 10 to 100.

Regarding `COC1CCCC1Nc1cc(C)cc(Nc2ncn(-c3cc(F)cc(F)c3)n2)c1` (stereo not drawn) [Compound 1065, N3-[1-(3,5-difluorophenyl)-1,2,4-triazol-3-yl]-N1-(2-methoxycyclopentyl)-5-methyl-benzene-1,3-diamine], under setting [4], the fold induction at 1 µM fell in the range of 10 to 100 and the fold induction at 10 µM was 1 to 10.

Turning to `Cc1cc(Nc2ncn(-c3cc(F)cc(F)c3)n2)cc(N2CCC(N3CCC(O)C3)C2)c1` (stereo not drawn) [Compound 1040, 1-[1-[3-[[1-(3,5-difluorophenyl)-1,2,4-triazol-3-yl]amino]-5-methyl-phenyl]pyrrolidin-3-yl]pyrrolidin-3-ol], under setting [4], the fold induction at 1 µM is 10 to 100 and the fold induction at 10 µM was at most 1.

With `Cc1cc(NCC2COCCO2)cc(Nc2ncn(-c3cc(F)cc(F)c3)n2)c1` (stereo not drawn) [Compound 932, N1-[1-(3,5-difluorophenyl)-1,2,4-triazol-3-yl]-N3-(1,4-dioxan-2-ylmethyl)-5-methyl-benzene-1,3-diamine], under setting [4], the fold induction at 1 µM lay in the range of 1 to 10 and the fold induction at 10 µM is at most 1.

For the molecule `Fc1ccc(-n2cnc(Nc3cc(Cl)cc(N4CC(N5CCOCC5)C4)c3)n2)cc1F` [Compound 784, N-[3-chloro-5-(3-morpholinoazetidin-1-yl)phenyl]-1-(3,4-difluorophenyl)-1,2,4-triazol-3-amine], under setting [3], the fold induction at 1 µM lay in the range of 10 to 100 and the fold induction at 10 µM was 10 to 100.

With `Cc1cc(Nc2ncn(-c3ccc(C(F)(F)F)cc3)n2)cc(N2CCN(C3COC3)CC2)c1` [Compound 191], the fold induction at 1 µM under setting [1] was at most 1. In addition, the fold induction at 10 µM under setting [2] fell in the range of 1 to 10.

As for `Cc1cc(Nc2ncn(-c3cc(F)cc(F)c3)n2)cc(C2(C)CN(C)C(=O)O2)c1` (stereo not drawn) [Compound 613, 5-[3-[[1-(3,5-difluorophenyl)-1,2,4-triazol-3-yl]amino]-5-methyl-phenyl]-3,5-dimethyl-oxazolidin-2-one], under setting [3], the fold induction at 1 µM is 10 to 100 and the fold induction at 10 µM was 1 to 10.

With `Cc1cc(Nc2ncn(-c3ccccc3)n2)cc(N2CCN(C)C(=O)C2)c1` [Compound 76, 1-methyl-4-[3-methyl-5-[(1-phenyl-1,2,4-triazol-3-yl)amino]phenyl]piperazin-2-one], under setting [1], the fold induction at 1 µM fell in the range of 100 to 1000. The fold induction at 10 µM under setting [2] was in the range of 100 to 1000.

Take `Cc1cc(Nc2ncn(-c3cc(F)cc(F)c3)n2)cc(N2CCOC3(COC3)C2)c1` [Compound 724, 1-(3,5-difluorophenyl)-N-[3-(2,5-dioxa-8-azaspiro[3.5]nonan-8-yl)-5-methyl-phenyl]-1,2,4-triazol-3-amine]: under setting [3], the fold induction at 1 µM fell in the range of 1 to 10 and the fold induction at 10 µM was in the range of 1 to 10.

In the case of `[2H]C(C)(C)N1CCN(c2cc(C)cc(Nc3ncn(-c4ccccc4)n3)c2)CC1` [Compound 929, N-[3-[4-(1-deuterio-1-methyl-ethyl)piperazin-1-yl]-5-methyl-phenyl]-1-phenyl-1,2,4-triazol-3-amine], under setting [4], the fold induction at 1 µM lay in the range of 10 to 100 and the fold induction at 10 µM was at most 1.

Regarding `Fc1cc(F)cc(-n2cnc(Nc3cc(C4CC4)nc(N4CCCCC4)c3)n2)c1` [Compound 378, 2-cyclopropyl-N-[1-(3,5-difluorophenyl)-1,2,4-triazol-3-yl]-6-(1-piperidyl)pyridin-4-amine], the fold induction at 1 µM under setting [1] fell in the range of 1 to 10. Besides, the fold induction at 10 µM under setting [2] fell in the range of 10 to 100.

For `Cc1cc(Nc2ncn(-c3ccc(Cl)c(F)c3)n2)nc(N2CCN(C3COC3)CC2)c1` [Compound 749, N-[1-(4-chloro-3-fluoro-phenyl)-1,2,4-triazol-3-yl]-4-methyl-6-[4-(oxetan-3-yl)piperazin-1-yl]pyridin-2-amine], under setting [3], the fold induction at 1 µM was 10 to 100 and the fold induction at 10 µM was in the range of 10 to 100.

`Cc1cc(Nc2ncn(-c3cc(F)cc(N4CC[C@@H](F)C4)c3)n2)cc(N2CCN(C3COC3)CC2)c1` [Compound 467, 1-[3-fluoro-5-[(3R)-3-fluoropyrrolidin-1-yl]phenyl]-N-[3-methyl-5-[4-(oxetan-3-yl)piperazin-1-yl]phenyl]-1,2,4-triazol-3-amine]: under setting [3], the fold induction at 1 µM was in the range of 100 to 1000 and the fold induction at 10 µM lay in the range of 10 to 100.

Turning to `COc1nccc(-n2cnc(Nc3cc(C)cc(N4CCN(C5COC5)CC4)c3)n2)n1` [Compound 30, 1-(2-methoxypyrimidin-4-yl)-N-[3-methyl-5-[4-(oxetan-3-yl)piperazin-1-yl]phenyl]-1,2,4-triazol-3-amine], the fold induction at 1 µM under setting [1] was at most 1. Further, the fold induction at 10 µM under setting [2] fell in the range of 100 to 1000.

On to `Fc1ccc(-n2cnc(Nc3cc(N4CCOCC4)nc(N4CCOCC4)c3)n2)cc1F` [Compound 393, N-[1-(3,4-difluorophenyl)-1,2,4-triazol-3-yl]-2,6-dimorpholino-pyridin-4-amine], for which, under setting [3], the fold induction at 1 µM lay in the range of 100 to 1000 and the fold induction at 10 µM was at most 1.

With `[2H]C1([2H])N(c2cc(C)cc(Nc3ncn(-c4cc(F)cc(F)c4)n3)c2)C([2H])([2H])C([2H])([2H])N(C2CCOC2)C1([2H])[2H]` (stereo not drawn) [Compound 1042, 1-(3,5-difluorophenyl)-N-[3-methyl-5-(2,2,3,3,5,5,6,6-octadeuterio-4-tetrahydrofuran-3-yl-piperazin-1-yl)phenyl]-1,2,4-triazol-3-amine], under setting [4], the fold induction at 1 µM was in the range of 10 to 100 and the fold induction at 10 µM is at most 1.

Turning to `Cc1cc(Nc2ncn(-c3cc(F)cc(F)c3)n2)c(F)c(OC2CCOC2)c1` (stereo not drawn) [Compound 856, 1-(3,5-difluorophenyl)-N-(2-fluoro-5-methyl-3-tetrahydrofuran-3-yloxy-phenyl)-1,2,4-triazol-3-amine], under setting [4], the fold induction at 1 µM lay within 10 to 100 and the fold induction at 10 µM was at most 1.

For the molecule `Cc1cc(Nc2ncn(-c3cc(F)cc(F)c3)n2)c(F)c(N2CC3(C2)CN(C(C)C)C3)c1` [Compound 1072, 1-(3,5-difluorophenyl)-N-[2-fluoro-3-(2-isopropyl-2,6-diazaspiro[3.3]heptan-6-yl)-5-methyl-phenyl]-1,2,4-triazol-3-amine], under setting [4], the fold induction at 1 µM is 1 to 10 and the fold induction at 10 µM is at most 1.

With `Cc1cc(Nc2ncn(-c3cc(F)c(F)cc3F)n2)cc(N2CCN(C3COC3)CC2)c1` [Compound 413, N-[3-methyl-5-[4-(oxetan-3-yl)piperazin-1-yl]phenyl]-1-(2,4,5-trifluorophenyl)-1,2,4-triazol-3-amine], under setting [3], the fold induction at 1 µM was at most 1 and the fold induction at 10 µM was in the range of 100 to 1000.

Consider `CCc1cc(Nc2ncn(-c3cnccn3)n2)cc(N2CCNCC2)c1` [Compound 124, N-(3-ethyl-5-piperazin-1-yl-phenyl)-1-pyrazin-2-yl-1,2,4-triazol-3-amine], for which the fold induction at 1 µM under setting [1] lay in the range of 1000 to 10000. Moreover, under setting [2], the fold induction at 10 µM is at most 1.

Turning to `Cc1cc(Nc2ncn(-c3ccccc3)n2)cc(N2CCN(CC(F)(F)F)CC2)c1` [Compound 398, N-[3-methyl-5-[4-(2,2,2-trifluoroethyl)piperazin-1-yl]phenyl]-1-phenyl-1,2,4-triazol-3-amine], under setting [3], the fold induction at 1 µM was 1000 to 10000 and the fold induction at 10 µM is 100 to 1000.
